A value given as a limit tells only on which side of the number the result lay.

What all share (format): in vivo, rat
Experiment [1] deals with STZ-induced mechanical allodynia. The experiment can be described thus: STZ-induced diabetic rats, subsequent study. The procedure:
(§1) Experiments were conducted to determine the effect of Compound 1 in streptozotocin (STZ)-induced diabetic rats. In the first experiment, after obtaining mechanical threshold baselines, STZ (50 mg/kg IV) was administered (Day −7). Two days later, blood glucose levels were measured and animals that were hyperglycemic (>250 mg/dL) continued in the study. On Day 0 the baseline for mechanical thresholds prior to dosing with test articles was established for the rats. Compound 1 (10, 30, and 100 mg/kg PO), gabapentin (100 mg/kg PO) or vehicle was then administered daily for 5 days. On Day 0 mechanical thresholds were obtained at 1, 3, and 6 h post-dose. On Day 1 mechanical thresholds were measured immediately prior to dosing and then 3 h post-dose. The same regimen was followed on Day 3.
In a subsequent study, the same STZ paradigm was followed. However, in addition to the 100 mg/kg Compound 1 group, two additional cohorts received the Compound 1 100 mg/kg dose split into two or three doses per day with 50 mg/kg BID and 33 mg/kg TID. In addition to the gabapentin (100 mg/kg PO) group, a separate cohort received duloxetine (30 mg/kg PO). Additionally, in this study mechanical threshold testing was implemented every day immediately prior to dosing and 2 h post-dose for 7 days.

Experiment [2] has the same test system. The experiment can be described thus: streptozotocin (STZ)-induced diabetic rats, first experiment. The note with it: gabapentin 100 mg/kg PO daily; 1 h post-dose Day 0 and all time points thereafter. The procedure:
FIG. 14 illustrates non-limiting reversal of mechanical hypersensitivity by Compound 1 in a diabetic neuropathy model, in accordance with various embodiments. Streptozotocin (STZ) destroys insulin-producing cells and generates a diabetic phenotype in […]. Animals were dosed with STZ on day −7. By day 0 animals are hyperglycemic and hyperalgesic (day 0 BL).
as §1

The subject of experiment [3] is incision-induced hyperalgesia. Briefly: Brennan protocol, treatment paradigm (established hyperalgesia). The note with it: morphine 3 mg/kg SC. From the text:
Two incisional pain models were used to assess Compound 1 effects on hyperalgesia. The first model is referred to as the Brennan model in which, under anesthesia, a 1 cm longitudinal incision to the skin and underlying fascia of a rat hindpaw is made. The second is a variation but is a more invasive procedure in which the skin and muscle are spread apart using forceps which creates a longer-lasting hypersensitivity.
Using the Brennan protocol and a treatment paradigm in rat, Compound 1 (10 and 30 mg/kg PO), morphine (3 mg/kg SC) or vehicle were administered daily at 24 h post-incision, and again at 48 and 72 h post-incision. Mechanical thresholds were obtained at 1 h and 2 h post-dose in all cohorts on all days.

`CNCC[C@H](Oc1cccc2ccccc12)c1cccs1` [duloxetine, reference compound]: the reversal of allodynia result in experiment [1] (duloxetine 30 mg/kg PO) was “required successive doses for appreciable activity”.

As for `NCC1(CC(=O)O)CCCCC1` [gabapentin, reference compound], the “reversal of allodynia (mechanical thresholds)” value in experiment [2] was “significant reversal of allodynia”. Also, the reversal of allodynia result in experiment [1] (gabapentin 100 mg/kg PO, throughout the study) is on record as “robustly reversed the allodynia”.

Take `CN1CC[C@]23c4c5ccc(O)c4O[C@H]2[C@@H](O)C=C[C@H]3[C@H]1C5` [morphine]: the mechanical threshold in experiment [3] (Day 1, 1 h post-dose (baseline 35 g)) was 45 g; in experiment [3] (Day 2 prior to dosing), less than 15 g. Further, the analgesic effect entry in experiment [3] (Day 1, 2 h post-dose) is “this effect waned”. The hyperalgesia result is listed as “not hyperalgesic” in experiment [3] (Day 2, 1 h) and “mild hyperalgesia” in experiment [3] (Day 2, 2 h).

The values are drawn from patent US20200289474A1, “METHODS OF TREATING PAIN WITH A THIAZOLINE ANTI-HYPERALGESIC” (priority 2019, published 2020).
